Assay results: PubChem BioAssay (NCI)
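Five concentrations, 48 hours, 96-well plates. Abbreviation: GI50, concentration required for 50% inhibition of growth. At the TGI there is no net growth.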

Assays:
Experiment in all cases: NCI-60 cell line screen, 48 h
SK-MEL-5 melanoma = tested on: SK-MEL-5 melanoma
OVCAR-8 ovarian = tested on: OVCAR-8 ovarian
SN12C renal = tested on: SN12C renal
HT29 colon = tested on: HT29 colon
T-47D breast = tested on: T-47D breast
IGROV1 ovarian = tested on: IGROV1 ovarian
HCC-2998 colon = tested on: HCC-2998 colon
SK-MEL-2 melanoma = tested on: SK-MEL-2 melanoma
A498 renal = tested on: A498 renal
EKVX NSCLC = tested on: EKVX NSCLC
SF-268 CNS = tested on: SF-268 CNS
OVCAR-3 ovarian = tested on: OVCAR-3 ovarian
NCI/ADR-RES ovarian = tested on: NCI/ADR-RES ovarian
BT-549 breast = tested on: BT-549 breast
OVCAR-5 ovarian = tested on: OVCAR-5 ovarian
HCT-116 colon = tested on: HCT-116 colon
HOP-92 NSCLC = tested on: HOP-92 NSCLC
RPMI-8226 leukemia = tested on: RPMI-8226 leukemia
SF-295 CNS = tested on: SF-295 CNS
MALME-3M melanoma = tested on: MALME-3M melanoma
786-0 renal = tested on: 786-0 renal
NCI-H23 lung = tested on: NCI-H23 lung
OVCAR-4 ovarian = tested on: OVCAR-4 ovarian
HOP-62 NSCLC = tested on: HOP-62 NSCLC
HS 578T breast = tested on: HS 578T breast
UACC-257 melanoma = tested on: UACC-257 melanoma
SNB-75 CNS = tested on: SNB-75 CNS
PC-3 prostate = tested on: PC-3 prostate
SW-620 colon = tested on: SW-620 colon
NCI-H460 lung = tested on: NCI-H460 lung
SK-OV-3 ovarian = tested on: SK-OV-3 ovarian
NCI-H226 lung = tested on: NCI-H226 lung
SK-MEL-28 melanoma = tested on: SK-MEL-28 melanoma
SR leukemia = tested on: SR leukemia
U251 CNS = tested on: U251 CNS
A549 NSCLC = tested on: A549 NSCLC
RXF 393 renal = tested on: RXF 393 renal
M14 melanoma = tested on: M14 melanoma
MCF7 breast = tested on: MCF7 breast
ACHN renal = tested on: ACHN renal
DU-145 prostate = tested on: DU-145 prostate
COLO 205 colon = tested on: COLO 205 colon
SF-539 CNS = tested on: SF-539 CNS
HL-60(TB) leukemia = tested on: HL-60(TB) leukemia
HCT-15 colon = tested on: HCT-15 colon
K-562 leukemia = tested on: K-562 leukemia
KM12 colon = tested on: KM12 colon
TK-10 renal = tested on: TK-10 renal
SNB-19 CNS = tested on: SNB-19 CNS
MOLT-4 leukemia = tested on: MOLT-4 leukemia
CAKI-1 renal = tested on: CAKI-1 renal
UO-31 renal = tested on: UO-31 renal
MDA-MB-231 breast = tested on: MDA-MB-231 breast
MDA-MB-435 = tested on: MDA-MB-435
UACC-62 melanoma = tested on: UACC-62 melanoma

## O=C(Nc1cccc(Cl)c1)Nc1nc2ccc([N+](=O)[O-])cc2o1
SK-MEL-5 melanoma
  GI50: 1.51 µM
  TGI: 4.19 µM
OVCAR-8 ovarian
  GI50: 3.12 µM
  TGI: > 100 µM
SN12C renal
  GI50: 2.28 µM
  TGI: 7.43 µM
HT29 colon
  GI50: 3.08 µM
  TGI: > 100 µM
T-47D breast
  GI50: 1.47 µM
  TGI: 7.59 µM
IGROV1 ovarian
  GI50: 2.83 µM
  TGI: > 100 µM
HCC-2998 colon
  GI50: 3.19 µM
  TGI: 48.3 µM
SK-MEL-2 melanoma
  GI50: 2.09 µM
  TGI: 6.11 µM
A498 renal
  GI50: 1.56 µM
  TGI: 4.5 µM
EKVX NSCLC
  GI50: 2.82 µM
  TGI: > 100 µM
SF-268 CNS
  GI50: 3.04 µM
  TGI: > 100 µM
OVCAR-3 ovarian
  GI50: 2.51 µM
  TGI: 11.4 µM
NCI/ADR-RES ovarian
  GI50: 2.66 µM
  TGI: 8.84 µM
BT-549 breast
  GI50: 2.09 µM
  TGI: 7.79 µM
OVCAR-5 ovarian
  GI50: 4.32 µM
  TGI: > 100 µM
HCT-116 colon
  GI50: 2.59 µM
  TGI: 10.3 µM
HOP-92 NSCLC
  GI50: 1.65 µM
  TGI: 6.04 µM
RPMI-8226 leukemia
  GI50: 1.48 µM
  TGI: 5.02 µM
SF-295 CNS
  GI50: 1.99 µM
  TGI: 6.02 µM
MALME-3M melanoma
  GI50: 2.49 µM
  TGI: 36 µM
786-0 renal
  GI50: 2.49 µM
  TGI: 7.77 µM
NCI-H23 lung
  GI50: 1.9 µM
  TGI: 7.09 µM
OVCAR-4 ovarian
  GI50: 2.56 µM
  TGI: > 100 µM
HOP-62 NSCLC
  GI50: 2.49 µM
  TGI: 9.14 µM
HS 578T breast
  GI50: 3.3 µM
  TGI: 54.4 µM
UACC-257 melanoma
  GI50: 2.25 µM
  TGI: 18.3 µM
SNB-75 CNS
  GI50: 2.68 µM
  TGI: 9.8 µM
PC-3 prostate
  GI50: 2.18 µM
  TGI: 9.12 µM
SW-620 colon
  GI50: 2.71 µM
  TGI: > 100 µM
NCI-H460 lung
  GI50: 1.74 µM
  TGI: 5.88 µM
SK-OV-3 ovarian
  GI50: 2.7 µM
  TGI: 8.33 µM
NCI-H226 lung
  GI50: 2.13 µM
  TGI: 5.42 µM
SK-MEL-28 melanoma
  GI50: 3.22 µM
  TGI: > 100 µM
SR leukemia
  GI50: 2.69 µM
  TGI: 7.84 µM
U251 CNS
  GI50: 2.71 µM
  TGI: > 100 µM
A549 NSCLC
  GI50: 3.06 µM
  TGI: > 100 µM
RXF 393 renal
  GI50: 1.66 µM
  TGI: 5.16 µM
M14 melanoma
  GI50: 2.54 µM
  TGI: 22.8 µM
MCF7 breast
  GI50: 2.82 µM
  TGI: > 100 µM
ACHN renal
  GI50: 3.23 µM
  TGI: 12.7 µM
DU-145 prostate
  GI50: 3.53 µM
  TGI: > 100 µM
COLO 205 colon
  GI50: 2.4 µM
  TGI: 7.82 µM
SF-539 CNS
  GI50: 2.75 µM
  TGI: 7.32 µM
HL-60(TB) leukemia
  GI50: 2.09 µM
  TGI: 4.99 µM
HCT-15 colon
  GI50: 2.46 µM
  TGI: > 100 µM
K-562 leukemia
  GI50: 3.02 µM
  TGI: > 100 µM
KM12 colon
  GI50: 3.17 µM
  TGI: > 100 µM
TK-10 renal
  GI50: 3.5 µM
  TGI: 8.43 µM
SNB-19 CNS
  GI50: 2.79 µM
  TGI: 86.5 µM
MOLT-4 leukemia
  GI50: 2.36 µM
  TGI: 7.71 µM
CAKI-1 renal
  GI50: 2.17 µM
  TGI: 7.56 µM
UO-31 renal
  GI50: 2.67 µM
  TGI: 7.82 µM
MDA-MB-231 breast
  GI50: 2.67 µM
  TGI: 8.54 µM
MDA-MB-435
  GI50: 2.88 µM
  TGI: > 100 µM
UACC-62 melanoma
  GI50: 1.54 µM
  TGI: 4.81 µM
